Experimental data: ChEMBL document CHEMBL4359923, “One-step Heck Reaction Generates Nonimmunosuppressive FK506 Analogs for Pharmacological BMP Activation” (ACS Med Chem Lett, 2019)
The source made the active and inactive calls. The calls are words filed in the database; no cut-off is given here.

Experiments:
[1] = system: HUVEC; assay: Cytotoxicity against human HUVEC cells assessed as inhibition of cell growth at 10 uM measured after 72 hrs by resazurin dye based assay
[2] = biological target: T1, Peptidyl-prolyl cis-trans isomerase FKBP1A (Homo sapiens, UniProt P62942); assay: Activation of FKBP12-mediated BMP signaling pathway in human Jurkat cells transfected with BRE-Luc at 1 nM to 1 uM measured after 18 hrs by luciferase reporter assay; assay type: cell-based
[3] = biological target: T1, Peptidyl-prolyl cis-trans isomerase FKBP1A; assay: Inhibition of FKBP12-mediated calcineurin activation in PMA/ionomycin stimulated human Jurkat cells transfected with NFAT-Luc assessed as reduction in NFAT reporter activity at 1 uM pretreated for 30 mins prior to PMA/ionomycin activation measured after 6 hrs by luciferase reporter assay; assay type: cell-based
[4] = system: HUVEC; assay: Cytotoxicity against human HUVEC cells assessed as inhibition of cell growth at 1 to 10 uM measured after 72 hrs by resazurin dye based assay
[5] = biological target: T1, Peptidyl-prolyl cis-trans isomerase FKBP1A; assay: Induction of FKBP12-mediated SMAD1/5 phosphorylation in human Jurkat cells measured after 2 hrs by Western blot analysis; assay type: cell-based
[6] = biological target: T1, Peptidyl-prolyl cis-trans isomerase FKBP1A; assay: Inhibition of FKBP12-mediated calcineurin activation in PMA/ionomycin stimulated human Jurkat cells transfected with NFAT-Luc assessed as NFAT reporter activity up to 10 uM pretreated for 30 mins prior to PMA/ionomycin activation measured after 6 hrs by luciferase reporter assay; assay type: cell-based

T1 sequence (P62942 whole entry): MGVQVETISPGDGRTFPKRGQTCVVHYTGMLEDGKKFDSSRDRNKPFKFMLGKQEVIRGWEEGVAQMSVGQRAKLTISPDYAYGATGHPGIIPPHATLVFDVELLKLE

Row | Structure (SMILES) | Activity [2] | inhibition (INH) [3] | Activity [5] | inhibition (INH) [6] | Activity [1] | Activity [4]
1 | CO[C@H]1C[C@@H](C)C/C(C)=C/[C@@H](C/C=C/c2ccccc2N)C(=O)C[C@H](O)[C@@H](C)[C@@H](/C(C)=C/[C@@H]2CC[C@@H](O)[C@H](OC)C2)OC(=O)[C@@H]2CCCCN2C(=O)C(=O)[C@]2(O)O[C@H]1[C@@H](OC)C[C@H]2C | Active | Active | – | – | – | Toxic
2 | C=CC[C@@H]1/C=C(\C)C[C@H](C)C[C@H](OC)[C@H]2O[C@@](O)(C(=O)C(=O)N3CCCC[C@H]3C(=O)O[C@H](/C(C)=C/[C@@H]3CC[C@@H](O)[C@H](OC)C3)[C@H](C)[C@@H](O)CC1=O)[C@H](C)C[C@@H]2OC [TACROLIMUS ANHYDROUS] | Active | Active | Dose-dependent effect | – | – | Toxic
3 | CO[C@H]1C[C@@H](C)C/C(C)=C/[C@@H](C/C=C/c2ccnc(N)c2)C(=O)C[C@H](O)[C@@H](C)[C@@H](/C(C)=C/[C@@H]2CC[C@@H](O)[C@H](OC)C2)OC(=O)[C@@H]2CCCCN2C(=O)C(=O)[C@]2(O)O[C@H]1[C@@H](OC)C[C@H]2C | Active | – | Dose-dependent effect | Not Active | – | Toxic
4 | CO[C@H]1C[C@@H](C)C/C(C)=C/[C@@H](C/C=C/c2ccc(N)cc2)C(=O)C[C@H](O)[C@@H](C)[C@@H](/C(C)=C/[C@@H]2CC[C@@H](O)[C@H](OC)C2)OC(=O)[C@@H]2CCCCN2C(=O)C(=O)[C@]2(O)O[C@H]1[C@@H](OC)C[C@H]2C | Active | Active | – | – | – | Toxic
5 | CO[C@H]1C[C@@H](C)C/C(C)=C/[C@@H](C/C=C/c2ccncc2)C(=O)C[C@H](O)[C@@H](C)[C@@H](/C(C)=C/[C@@H]2CC[C@@H](O)[C@H](OC)C2)OC(=O)[C@@H]2CCCCN2C(=O)C(=O)[C@]2(O)O[C@H]1[C@@H](OC)C[C@H]2C | Active | – | Dose-dependent effect | Not Active | – | Toxic
6 | CO[C@H]1C[C@@H](C)C/C(C)=C/[C@@H](C/C=C/c2cccc(N)c2)C(=O)C[C@H](O)[C@@H](C)[C@@H](/C(C)=C/[C@@H]2CC[C@@H](O)[C@H](OC)C2)OC(=O)[C@@H]2CCCCN2C(=O)C(=O)[C@]2(O)O[C@H]1[C@@H](OC)C[C@H]2C | Active | Active | – | – | – | Toxic
7 | CNc1ccc(/C=C/C[C@@H]2/C=C(\C)C[C@H](C)C[C@H](OC)[C@H]3O[C@@](O)(C(=O)C(=O)N4CCCC[C@H]4C(=O)O[C@H](/C(C)=C/[C@@H]4CC[C@@H](O)[C@H](OC)C4)[C@H](C)[C@@H](O)CC2=O)[C@H](C)C[C@@H]3OC)cc1 | Active | Active | – | – | – | Toxic

More lines, main results first:

Row | Activity [2] | inhibition (INH) [3] | Activity [5] | inhibition (INH) [6] | Structure (SMILES) | Activity [1] | Activity [4]
8 | Active | Active | – | – | CO[C@H]1C[C@@H](C)C/C(C)=C/[C@@H](C/C=C/c2ccnc3cc(F)ccc23)C(=O)C[C@H](O)[C@@H](C)[C@@H](/C(C)=C/[C@@H]2CC[C@@H](O)[C@H](OC)C2)OC(=O)[C@@H]2CCCCN2C(=O)C(=O)[C@]2(O)O[C@H]1[C@@H](OC)C[C@H]2C | Toxic | –
9 | Active | – | Dose-dependent effect | Not Active | CO[C@H]1C[C@@H](C)C/C(C)=C/[C@@H](C/C=C/c2ccncc2N)C(=O)C[C@H](O)[C@@H](C)[C@@H](/C(C)=C/[C@@H]2CC[C@@H](O)[C@H](OC)C2)OC(=O)[C@@H]2CCCCN2C(=O)C(=O)[C@]2(O)O[C@H]1[C@@H](OC)C[C@H]2C | – | Toxic
10 | Active | Active | – | – | CO[C@H]1C[C@@H](C)C/C(C)=C/[C@@H](C/C=C/c2ccncc2F)C(=O)C[C@H](O)[C@@H](C)[C@@H](/C(C)=C/[C@@H]2CC[C@@H](O)[C@H](OC)C2)OC(=O)[C@@H]2CCCCN2C(=O)C(=O)[C@]2(O)O[C@H]1[C@@H](OC)C[C@H]2C | – | Toxic
11 | Active | Active | – | – | CO[C@H]1C[C@@H](C)C/C(C)=C/[C@@H](C/C=C/c2ccnc3ccccc23)C(=O)C[C@H](O)[C@@H](C)[C@@H](/C(C)=C/[C@@H]2CC[C@@H](O)[C@H](OC)C2)OC(=O)[C@@H]2CCCCN2C(=O)C(=O)[C@]2(O)O[C@H]1[C@@H](OC)C[C@H]2C | Toxic | –
12 | Active | Active | – | – | CO[C@H]1C[C@@H](C)C/C(C)=C/[C@@H](C/C=C/c2ccnc3c(F)c(F)ccc23)C(=O)C[C@H](O)[C@@H](C)[C@@H](/C(C)=C/[C@@H]2CC[C@@H](O)[C@H](OC)C2)OC(=O)[C@@H]2CCCCN2C(=O)C(=O)[C@]2(O)O[C@H]1[C@@H](OC)C[C@H]2C | Toxic | –
